What was measured:
Assay type in all cases: in vivo
[1] = tested on: Diabrotica Balteata (Corn Root Worm); assay: Activity against Diabrotica balteata, sprayed maize sprouts; conditions: 96 h, application rate of 200 ppm, L2 larvae, 4 days after infestation, read-out: effect in at least one of the two categories (mortality or growth inhibition)
Method: Maize sprouts, placed on an agar layer in 24-well microtiter plates were treated with aqueous test solutions prepared from 10,000 ppm DMSO stock solutions by spraying. After drying, the plates were infested with L2 larvae (6 to 10 per well). The samples were assessed for mortality and growth inhibition in comparison to untreated samples 4 days after infestation.

[2] = tested on: Spodoptera littoralis (Egyptian Cotton Leaf Worm); assay: Activity against Spodoptera littoralis, sprayed cotton leaf discs; conditions: foliar, 72 h, application rate of 200 ppm, L1 larvae, 3 days after infestation, read-out: control (at least one of mortality, anti-feedant effect, and growth inhibition)
Method: Cotton leaf discs were placed on agar in 24-well microtiter plates and sprayed with aqueous test solutions prepared from 10,000 ppm DMSO stock solutions. After drying the leaf discs were infested with five L1 larvae. The samples were assessed for mortality, anti-feedant effect, and growth inhibition in comparison to untreated samples 3 days after infestation. Control of Spodoptera littoralis by a test sample is when at least one of mortality, anti-feedant effect, and growth inhibition is higher than the untreated sample.

[3] = tested on: Spodoptera littoralis (Egyptian Cotton Leaf Worm); assay: Activity against Spodoptera littoralis, systemic via lettuce grown on treated agar; conditions: 144 h, test rate of 12.5 ppm, root uptake by lettuce, 6 days after infestation, read-out: effect in at least one of the three categories (mortality, anti-feedancy, or growth inhibition)
Excerpt: Test compounds were applied by pipette from 10,000 ppm DMSO stock solutions into 24-well plates and mixed with agar. Lettuce seeds were placed on the agar and the multi well plate was closed by another plate which contains also agar. After 7 days the roots have absorbed the compound and the lettuce has grown into the lid plate. The lettuce leafs were now cut off into the lid plate. Spodoptera eggs were pipetted through a plastic stencil on a humid gel blotting paper and the plate closed with it. The samples were assessed for mortality, anti-feedant effect and growth inhibition in comparison to untreated samples 6 days after infestation.

[4] = tested on: Plutella xylostella (Diamond Back Moth); assay: Activity against Plutella xylostella, treated artificial diet; conditions: 120 h, application rate of 200 ppm, L2 larvae, 5 days after infestation, read-out: effect in at least one of the two categories (mortality or growth inhibition)
Method: 24-well microtiter plates with artificial diet were treated with aqueous test solutions prepared from 10,000 ppm DMSO stock solutions by pipetting. After drying, the plates were infested with L2 larvae (10 to 15 per well). The samples were assessed for mortality and growth inhibition in comparison to untreated samples 5 days after infestation.

[5] = tested on: Myzus persicae (Green Peach Aphid); assay: Activity against Myzus persicae, sprayed sunflower leaf discs; conditions: foliar, 144 h, application rate of 200 ppm, aphid population of mixed ages, 6 days after infestation
Method: (§1) Sunflower leaf discs were placed on agar in a 24-well microtiter plate and sprayed with aqueous test solutions prepared from 10,000 ppm DMSO stock solutions. After drying, the leaf discs were infested with an aphid population of mixed ages. The samples were assessed for mortality 6 days after infestation.

[6] = tested on: Frankliniella occidentalis (Western Flower Thrips); assay: Activity against Frankliniella occidentalis, sprayed sunflower leaf discs; conditions: foliar, 168 h, application rate of 200 ppm, population of mixed ages, 7 days after infestation
Method: as §1, with “in” for “in a”, “plates” for “plate”, “10,000” for “10,000 ppm”, “drying” for “drying,”, “a Frankliniella” for “an aphid”, “7” for “6”

[7] = tested on: Euschistus heros(Neotropical Brown Stink Bug); assay: Activity against Euschistus heros, sprayed soybean leaf; conditions: 120 h, application rate of 200 ppm, N-2 nymphs, 5 days after infestation, read-out: effect in at least one of the two categories (mortality or growth inhibition)
Method: Soybean leaf on agar in 24-well microtiter plates were sprayed with aqueous test solutions prepared from 10,000 ppm DMSO stock solutions. After drying the leaf were infested with N-2 nymphs. The samples were assessed for mortality and growth inhibition in comparison to untreated samples 5 days after infestation.

[8] = tested on: Myzus persicae (Green Peach Aphid); assay: Activity against Myzus persicae, systemic via roots of pea seedlings; conditions: 144 h, test rate of 24 ppm, roots of pea seedlings in test solution, 6 days
Method: Roots of pea seedlings infested with an aphid population of mixed ages were placed directly in the aqueous test solutions prepared from 10,000 DMSO stock solutions. The samples were assessed for mortality 6 days after placing seedlings in test solutions.

CCSc1cc(-n2cc(C(F)(F)F)cn2)cnc1-c1nnc(-c2cc(C(F)(F)F)ccn2)n1C [Compound P5]
≥ 80%: percent effect (mortality or growth inhibition) at 200 ppm [1]

CCS(=O)(=O)c1ccc(-c2cccc(F)c2)nc1-c1nnc(-c2cc(C(F)(F)F)ccn2)n1C [Compound P50, 3-ethylsulfonyl-6-(3-fluorophenyl)-2-[4-methyl-5-[4-(trifluoromethyl)-2-pyridyl]-1,2,4-triazol-3-yl]pyridine]
≥ 80%: mortality at 200 ppm [2] | percent control (mortality, anti-feedancy or growth inhibition) at 12.5 ppm [3] | percent effect (mortality or growth inhibition) at 200 ppm [4] | percent effect (mortality or growth inhibition) at 200 ppm [1] | mortality at 200 ppm [5] | mortality at 200 ppm [6] | percent effect (mortality or growth inhibition) at 200 ppm [7]

CCS(=O)(=O)c1cc(-c2ccc(Cl)cc2)cnc1-c1nnc(-c2cc(C(F)(F)F)ccn2)n1C [Compound P2, 5-(4-chlorophenyl)-3-ethylsulfonyl-2-[4-methyl-5-[4-(trifluoromethyl)-2-pyridyl]-1,2,4-triazol-3-yl]pyridine]
≥ 80%: mortality at 200 ppm [2] | percent effect (mortality or growth inhibition) at 200 ppm [1]

CCS(=O)(=O)c1cc(-c2ncc(C#N)cn2)cnc1-c1nnc(-c2cc(C(F)(F)F)ccn2)n1C [Compound P20]
≥ 80%: mortality at 200 ppm [2] | percent control (mortality, anti-feedancy or growth inhibition) at 12.5 ppm [3] | percent effect (mortality or growth inhibition) at 200 ppm [4] | percent effect (mortality or growth inhibition) at 200 ppm [1] | mortality at 200 ppm [5] | percent effect (mortality or growth inhibition) at 200 ppm [7]

C=Cc1cnc(-c2nnc(-c3cc(C(F)(F)F)ccn3)n2C)c(S(=O)(=O)CC)c1 [Compound P12, 3-ethylsulfonyl-2-[4-methyl-5-[4-(trifluoromethyl)-2-pyridyl]-1,2,4-triazol-3-yl]-5-vinyl-pyridine]
≥ 80%: mortality at 200 ppm [5] | mortality at 24 ppm [8]

CCS(=O)(=O)c1cc(-c2cccc(F)c2)cnc1-c1nnc(-c2cc(C(F)(F)F)ccn2)n1C [Compound P53]
≥ 80%: mortality at 200 ppm [2] | percent effect (mortality or growth inhibition) at 200 ppm [4] | percent effect (mortality or growth inhibition) at 200 ppm [1]

CCS(=O)(=O)c1cc([S+]([O-])C(F)(F)F)cnc1-c1nnc(-c2cc(C(F)(F)F)ccn2)n1C (stereo not drawn) [Compound P36, 3-ethylsulfonyl-2-[4-methyl-5-[4-(trifluoromethyl)-2-pyridyl]-1,2,4-triazol-3-yl]-5-(trifluoromethylsulfinyl)pyridine]
≥ 80%: percent effect (mortality or growth inhibition) at 200 ppm [1] | mortality at 24 ppm [8]

CCS(=O)(=O)c1cc(-c2cccc(Cl)n2)cnc1-c1nnc(-c2cc(C(F)(F)F)ccn2)n1C [Compound P24, 5-(6-chloro-2-pyridyl)-3-ethylsulfonyl-2-[4-methyl-5-[4-(trifluoromethyl)-2-pyridyl]-1,2,4-triazol-3-yl]pyridine]
≥ 80%: mortality at 200 ppm [2] | percent effect (mortality or growth inhibition) at 200 ppm [4] | percent effect (mortality or growth inhibition) at 200 ppm [1] | percent effect (mortality or growth inhibition) at 200 ppm [7]

CCSc1cc(-n2cccn2)cnc1-c1nnc(-c2cc(C(F)(F)F)ccn2)n1C [Compound P3, 3-ethylsulfanyl-2-[4-methyl-5-[4-(trifluoromethyl)-2-pyridyl]-1,2,4-triazol-3-yl]-5-pyrazol-1-yl-pyridine]
≥ 80%: mortality at 200 ppm [6] | percent effect (mortality or growth inhibition) at 200 ppm [7]

CCSc1cc(-c2ccc(Cl)cc2)cnc1-c1nnc(-c2cc(C(F)(F)F)ccn2)n1C [Compound P1, 5-(4-chlorophenyl)-3-ethylsulfanyl-2-[4-methyl-5-[4-(trifluoromethyl)-2-pyridyl]-1,2,4-triazol-3-yl]pyridine]
≥ 80%: mortality at 200 ppm [2] | percent effect (mortality or growth inhibition) at 200 ppm [1]

CCS(=O)(=O)c1cc(-n2cccn2)cnc1-c1nnc(-c2cc(C(F)(F)F)ccn2)n1C [Compound P4, 3-ethylsulfonyl-2-[4-methyl-5-[4-(trifluoromethyl)-2-pyridyl]-1,2,4-triazol-3-yl]-5-pyrazol-1-yl-pyridine]
≥ 80%: mortality at 200 ppm [2] | mortality at 200 ppm [5] | percent effect (mortality or growth inhibition) at 200 ppm [7]

CCS(=O)(=O)c1cc(S(=O)(=O)C(F)(F)F)cnc1-c1nnc(-c2cc(C(F)(F)F)ccn2)n1C [Compound P35, 3-ethylsulfonyl-2-[4-methyl-5-[4-(trifluoromethyl)-2-pyridyl]-1,2,4-triazol-3-yl]-5-(trifluoromethylsulfonyl)pyridine]
≥ 80%: mortality at 200 ppm [2] | percent effect (mortality or growth inhibition) at 200 ppm [4] | percent effect (mortality or growth inhibition) at 200 ppm [1]

CCSc1cc(-c2ncccn2)cnc1-c1nnc(-c2cc(C(F)(F)F)ccn2)n1C [Compound P8]
≥ 80%: percent effect (mortality or growth inhibition) at 200 ppm [4] | percent effect (mortality or growth inhibition) at 200 ppm [1] | mortality at 200 ppm [6]

CCS(=O)(=O)c1cc(SC(F)(F)F)cnc1-c1nnc(-c2cc(C(F)(F)F)ccn2)n1C [Compound P34, 3-ethylsulfonyl-2-[4-methyl-5-[4-(trifluoromethyl)-2-pyridyl]-1,2,4-triazol-3-yl]-5-(trifluoromethylsulfanyl)pyridine]
≥ 80%: percent effect (mortality or growth inhibition) at 200 ppm [1] | mortality at 200 ppm [5]

CCS(=O)(=O)c1cc(-n2ccc(C#N)n2)cnc1-c1nnc(-c2cc(C(F)(F)F)ccn2)n1C [Compound P16]
≥ 80%: mortality at 200 ppm [2] | percent control (mortality, anti-feedancy or growth inhibition) at 12.5 ppm [3] | percent effect (mortality or growth inhibition) at 200 ppm [4] | percent effect (mortality or growth inhibition) at 200 ppm [1] | mortality at 200 ppm [5]

CCS(=O)(=O)c1cc(-c2cccc(C#N)n2)cnc1-c1nnc(-c2cc(C(F)(F)F)ccn2)n1C [Compound P21]
≥ 80%: mortality at 200 ppm [2] | percent control (mortality, anti-feedancy or growth inhibition) at 12.5 ppm [3] | percent effect (mortality or growth inhibition) at 200 ppm [4] | percent effect (mortality or growth inhibition) at 200 ppm [1] | mortality at 200 ppm [5] | mortality at 200 ppm [6] | percent effect (mortality or growth inhibition) at 200 ppm [7]

CCS(=O)(=O)c1cc(-c2cccc(F)c2)cnc1-c1nnc(-c2cc(C(F)(F)F)ncn2)n1C [Compound P52]
≥ 80%: mortality at 200 ppm [2] | percent control (mortality, anti-feedancy or growth inhibition) at 12.5 ppm [3] | percent effect (mortality or growth inhibition) at 200 ppm [4] | percent effect (mortality or growth inhibition) at 200 ppm [1] | mortality at 200 ppm [5] | mortality at 200 ppm [6] | percent effect (mortality or growth inhibition) at 200 ppm [7]

CCS(=O)(=O)c1ccc(C2CC2)nc1-c1nnc(-c2cc(C(F)(F)F)ccn2)n1C [Compound P38]
≥ 80%: mortality at 200 ppm [2] | percent effect (mortality or growth inhibition) at 200 ppm [4] | percent effect (mortality or growth inhibition) at 200 ppm [1]

CCS(=O)(=O)c1cc(-c2ccc(C(F)(F)F)cc2)cnc1-c1nnc(-c2cc(C(F)(F)F)ccn2)n1C [Compound P11]
≥ 80%: mortality at 200 ppm [2] | percent effect (mortality or growth inhibition) at 200 ppm [4] | percent effect (mortality or growth inhibition) at 200 ppm [1] | mortality at 200 ppm [5] | percent effect (mortality or growth inhibition) at 200 ppm [7]

CCS(=O)(=O)c1cc(-c2ncc(Cl)cn2)cnc1-c1nnc(-c2cc(C(F)(F)F)ccn2)n1C [Compound P18]
≥ 80%: mortality at 200 ppm [2] | percent effect (mortality or growth inhibition) at 200 ppm [1]

CCS(=O)(=O)c1cc(-n2ccc(Cl)n2)cnc1-c1nnc(-c2cc(C(F)(F)F)ccn2)n1C [Compound P28]
≥ 80%: mortality at 200 ppm [2] | percent control (mortality, anti-feedancy or growth inhibition) at 12.5 ppm [3] | percent effect (mortality or growth inhibition) at 200 ppm [4] | percent effect (mortality or growth inhibition) at 200 ppm [1] | mortality at 200 ppm [5] | mortality at 200 ppm [6] | percent effect (mortality or growth inhibition) at 200 ppm [7]

Reference: patent US10292391B2, “Pesticidally active 1,2,4-triazole derivatives with sulphur containing substituents” (Syngenta Participations AG, priority 2015, dated 2019)
